Assay: xn = mol fraction of the nth substance listed

CCCCCCCCn1cc[n+](CCCCCCCC)c1.O=S(=O)([N-]S(=O)(=O)C(F)(F)F)C(F)(F)F + O
100 kPa, x2 = 0.1246
Details | viscosity [mPa·s]
303.15 K | 92.9
308.15 K | 73.29
358.15 K | 13.27

CS(C)=O + CC[NH+](CC)CC.O=P([O-])(O)O
101 kPa, x1 = 1
Details | viscosity [mPa·s]
298.15 K | 1.99
303.15 K | 1.8
308.15 K | 1.65

CC[n+]1ccn(C)c1.[Cl-] + OCC(O)CO
Details | viscosity [mPa·s]
303.15 K, 100 kPa, x1 = 0.333 | 126.9
313.15 K, 101 kPa, x1 = 0.667 | 135.5

CCCCCCCCCCCC[N+](C)(C)Cc1ccccc1.[Cl-] + CC(C)[C@H](N)C(=O)O + O
electrical conductivity [S/m], 101 kPa
Details | 293.15 K | 298.15 K | 303.15 K | 308.15 K | 313.15 K
x2 = 0.0008891, x1 = 0.0003 | 0.0839 | 0.0943 | 0.106 | 0.118 | 0.132
x2 = 0.0008891, x1 = 0.000319 | 0.087 | 0.0977 | 0.11 | 0.123 | 0.137
x2 = 0.0008892, x1 = 0.0001722 | 0.0627 | 0.0699 | 0.0776 | 0.0856 | 0.0943
x2 = 0.0008892, x1 = 0.0001982 | 0.0677 | 0.0756 | 0.0841 | 0.0932 | 0.103
x2 = 0.0008892, x1 = 0.000222 | 0.0717 | 0.0802 | 0.0894 | 0.0993 | 0.11
x2 = 0.0008892, x1 = 0.0002429 | 0.0751 | 0.0841 | 0.0939 | 0.104 | 0.116
x2 = 0.0008892, x1 = 0.0002636 | 0.0783 | 0.0878 | 0.0982 | 0.109 | 0.122
x2 = 0.0008892, x1 = 0.0002822 | 0.0812 | 0.0912 | 0.102 | 0.114 | 0.127
x2 = 0.0008893, x1 = 7.858e-05 | 0.0307 | 0.0345 | 0.0383 | 0.0422 | 0.046
x2 = 0.0008893, x1 = 9.958e-05 | 0.0385 | 0.0432 | 0.0479 | 0.0528 | 0.0577
x2 = 0.0008893, x1 = 0.0001218 | 0.0467 | 0.0524 | 0.058 | 0.064 | 0.0701
x2 = 0.0008893, x1 = 0.0001461 | 0.0553 | 0.0619 | 0.0686 | 0.0756 | 0.0827
x2 = 0.0008894, x1 = 5.704e-05 | 0.0227 | 0.0255 | 0.0283 | 0.0312 | 0.034
x2 = 0.001757, x1 = 5.785e-05 | 0.0228 | 0.0256 | 0.0285 | 0.0315 | 0.0345
x2 = 0.001757, x1 = 7.859e-05 | 0.0304 | 0.0341 | 0.0379 | 0.0418 | 0.0458
x2 = 0.001757, x1 = 0.0001001 | 0.0382 | 0.0428 | 0.0475 | 0.0528 | 0.0574
x2 = 0.001757, x1 = 0.000121 | 0.0457 | 0.0512 | 0.0568 | 0.0628 | 0.0689
x2 = 0.001757, x1 = 0.0001443 | 0.0537 | 0.0601 | 0.0666 | 0.0735 | 0.0809
x2 = 0.001757, x1 = 0.0001688 | 0.0607 | 0.0676 | 0.075 | 0.0828 | 0.0914
x2 = 0.001757, x1 = 0.0001945 | 0.0657 | 0.0733 | 0.0815 | 0.0905 | 0.1
x2 = 0.001757, x1 = 0.0002205 | 0.07 | 0.0783 | 0.0872 | 0.0971 | 0.108
x2 = 0.001757, x1 = 0.0002437 | 0.0737 | 0.0826 | 0.0919 | 0.103 | 0.114
x2 = 0.001757, x1 = 0.0002647 | 0.0773 | 0.0864 | 0.0965 | 0.108 | 0.12
x2 = 0.001757, x1 = 0.0002841 | 0.0803 | 0.09 | 0.101 | 0.112 | 0.126
x2 = 0.001757, x1 = 0.0003021 | 0.0834 | 0.0937 | 0.105 | 0.117 | 0.13
x2 = 0.001757, x1 = 0.0003234 | 0.0872 | 0.0978 | 0.11 | 0.122 | 0.136

From the CheMixHub ionic liquid set
